# Measured values: PubChem BioAssay AID256 (DTP/NCI, 2004)
# Values joined by “and” are separate entries in the source; they are usually repeats but may differ in a detail not shown here. Equal values may be shown once. Inconclusive results and toxic doses are left out.
# Test system: CD2F1 mice, L1210 leukemia ip, survival T/C
# Test: NCI In Vivo Anticancer Drug Screen. Data for tumor model L1210 Leukemia (intraperitoneal) in CD2F1 (CDF1) mice
# Conditions: higher = longer survival
# How it was run: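 Mice carrying a transplanted tumor received test compound or vehicle alone. The value is the measurement in the treated group divided by that in the vehicle-treated control group.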
# [1] = endpoint: mean survival time, dose: 50.0 mg/kg/injection, schedule: Q01DX009 (ip), vehicle: saline with Tween-80
# [2] = endpoint: mean survival time, dose: 100.0 mg/kg/injection, schedule: Q01DX001 (ip), vehicle: saline with Tween-80
# [3] = endpoint: mean survival time, dose: 100.0 mg/kg/injection, schedule: Q01DX009 (ip), vehicle: saline with Tween-80
# [4] = endpoint: mean survival time, dose: 100.0 mg/kg/injection, schedule: Q04DX003 (ip), vehicle: saline with Tween-80
# [5] = endpoint: mean survival time, dose: 200.0 mg/kg/injection, schedule: Q01DX001 (ip), vehicle: saline with Tween-80
# [6] = endpoint: mean survival time, dose: 200.0 mg/kg/injection, schedule: Q01DX009 (ip), vehicle: saline with Tween-80
# [7] = endpoint: mean survival time, dose: 200.0 mg/kg/injection, schedule: Q04DX003 (ip), vehicle: saline with Tween-80
# [8] = endpoint: mean survival time, dose: 25.0 mg/kg/injection, schedule: Q01DX009 (ip), vehicle: saline with Tween-80
smiles,measurement,setting,value
O=C(COc1ccccc1)NC(=S)Nc1ccc(Cl)c(Cl)c1,T/C,"endpoint: mean survival time, dose: 25.0 mg/kg/injection, schedule: Q04DX002 (ip), vehicle: saline with Tween-80",97 % of control and 105 % of control
same,T/C,"endpoint: mean survival time, dose: 50.0 mg/kg/injection, schedule: Q01DX001 (ip), vehicle: saline with Tween-80",101 % of control
same,T/C,[1],98 % of control and 102 % of control
same,T/C,"endpoint: mean survival time, dose: 50.0 mg/kg/injection, schedule: Q04DX003 (ip), vehicle: saline with Tween-80",98 % of control
same,T/C,[2],101 % of control
same,T/C,[3],98 % of control and 106 % of control
same,T/C,[4],96 % of control
same,T/C,[5],95 % of control
same,T/C,[6],93 % of control and 96 % of control
same,T/C,[7],98 % of control
COC(=O)CCCc1c[nH]c2ccccc12,T/C,"endpoint: mean survival time, dose: 100.0 mg/kg/injection, schedule: Q04DX003 (ip), vehicle: other",101 % of control
same,T/C,"endpoint: mean survival time, dose: 200.0 mg/kg/injection, schedule: Q04DX003 (ip), vehicle: other",115 % of control
same,T/C,"endpoint: mean survival time, dose: 400.0 mg/kg/injection, schedule: Q04DX003 (ip), vehicle: other",94 % of control
COc1cc([C@@H]2c3cc4c(cc3[C@H](O)[C@H]3COC(=O)[C@H]23)OCO4)cc(OC)c1OC,T/C,"endpoint: median survival time, dose: 0.62 mg/kg/injection, schedule: Q01DX009 (ip), vehicle: saline with Tween-80",122 % of control
same,T/C,"endpoint: median survival time, dose: 0.63 mg/kg/injection, schedule: Q01DX009 (ip), vehicle: saline with Tween-80",112 % of control
same,T/C,"endpoint: median survival time, dose: 1.0 mg/kg/injection, schedule: Q01DX005 (ip), vehicle: Klucel (hydroxypropylcellulose) (HPC)",124 % of control
same,T/C,"endpoint: median survival time, dose: 1.25 mg/kg/injection, schedule: Q01DX009 (ip), vehicle: saline with Tween-80",116 % of control and 120 % of control
same,T/C,"endpoint: median survival time, dose: 1.8 mg/kg/injection, schedule: Q01DX009 (ip), vehicle: saline with Tween-80",122 % of control
same,T/C,"endpoint: median survival time, dose: 2.0 mg/kg/injection, schedule: Q01DX005 (ip), vehicle: Klucel (hydroxypropylcellulose) (HPC)",118 % of control
same,T/C,"endpoint: median survival time, dose: 2.5 mg/kg/injection, schedule: Q01DX009 (ip), vehicle: saline with Tween-80",122 % of control
same,T/C,"endpoint: median survival time, dose: 10.0 mg/kg/injection, schedule: Q01DX009 (ip), vehicle: saline with Tween-80",115 % of control and 111 % of control
same,T/C,"endpoint: median survival time, dose: 13.89 mg/kg/injection, schedule: Q01DX009 (ip), vehicle: saline with Tween-80",155 % of control
O=C1C=CC(=O)N1c1ccc(F)cc1 (tested in a mixture with another compound),T/C,[1],96 % of control
same,T/C,[3],91 % of control
same,T/C,[6],86 % of control
COC(=O)C#CC(c1ccccc1)(c1ccccc1)c1ccccc1,T/C,[3],103 % of control
same,T/C,[6],101 % of control
same,T/C,"endpoint: mean survival time, dose: 400.0 mg/kg/injection, schedule: Q01DX009 (ip), vehicle: saline with Tween-80",109 % of control
CCNC1=C(C)C(=O)C2=C(C1=O)C(COC(N)=O)C1(O)C3C(CN21)N3C (stereo not given),T/C,"endpoint: mean survival time, dose: 1.5 mg/kg/injection, schedule: Q01DX001 (ip), vehicle: saline",98 % of control
same,T/C,"endpoint: mean survival time, dose: 3.0 mg/kg/injection, schedule: Q01DX001 (ip), vehicle: saline",95 % of control
same,T/C,"endpoint: mean survival time, dose: 6.0 mg/kg/injection, schedule: Q01DX001 (ip), vehicle: saline",101 % of control
same,T/C,"endpoint: mean survival time, dose: 12.0 mg/kg/injection, schedule: Q01DX001 (ip), vehicle: saline",93 % of control
same,T/C,"endpoint: mean survival time, dose: 24.0 mg/kg/injection, schedule: Q01DX001 (ip), vehicle: saline",95 % of control
same,T/C,"endpoint: mean survival time, dose: 30.0 mg/kg/injection, schedule: Q01DX001 (ip), vehicle: water",100 % of control
same,T/C,"endpoint: mean survival time, dose: 60.0 mg/kg/injection, schedule: Q01DX001 (ip), vehicle: water",101 % of control
CC(=O)Oc1c(Cl)cc(Cl)c(Cl)c1[N+](=O)[O-],T/C,[2],93 % of control
same,T/C,[5],93 % of control
O=C(Nc1ccc(S(=O)(=O)F)cc1)c1ccc([N+](=O)[O-])cc1,T/C,"endpoint: mean survival time, dose: 100.0 mg/kg/injection, schedule: Q01DX001 (ip), vehicle: saline",105 % of control
same,T/C,"endpoint: mean survival time, dose: 200.0 mg/kg/injection, schedule: Q01DX001 (ip), vehicle: saline",100 % of control
same,T/C,"endpoint: mean survival time, dose: 400.0 mg/kg/injection, schedule: Q01DX001 (ip), vehicle: saline",100 % of control
OC(CC(CC(O)(C(F)(F)F)C(F)(F)F)=NNc1ccccc1)(C(F)(F)F)C(F)(F)F,T/C,[8],92 % of control
same,T/C,[1],93 % of control
COc1cc(OC)c(NC(=O)NCc2ccco2)cc1Cl,T/C,"endpoint: mean survival time, dose: 12.5 mg/kg/injection, schedule: Q01DX009 (ip), vehicle: saline with Tween-80",103 % of control
same,T/C,[8],95 % of control
same,T/C,[1],88 % of control and 98 % of control
same,T/C,[6],92 % of control
[Cl][Pt+2][Cl].[NH-]C(C(=O)OCc1ccccc1)c1ccccc1.[NH-]C(C(=O)OCc1ccccc1)c1ccccc1 (stereo not given),T/C,"endpoint: median survival time, dose: 3.12 mg/kg/injection, schedule: Q04DX003 (ip), vehicle: saline",103 % of control
same,T/C,"endpoint: median survival time, dose: 6.25 mg/kg/injection, schedule: Q04DX003 (ip), vehicle: saline",109 % of control
same,T/C,"endpoint: median survival time, dose: 12.5 mg/kg/injection, schedule: Q04DX003 (ip), vehicle: saline",98 % of control
same,T/C,"endpoint: median survival time, dose: 25.0 mg/kg/injection, schedule: Q04DX003 (ip), vehicle: saline",101 % of control
same,T/C,"endpoint: median survival time, dose: 50.0 mg/kg/injection, schedule: Q04DX003 (ip), vehicle: saline",109 % of control
same,T/C,"endpoint: median survival time, dose: 100.0 mg/kg/injection, schedule: Q04DX003 (ip), vehicle: saline",109 % of control
same,T/C,"endpoint: median survival time, dose: 200.0 mg/kg/injection, schedule: Q04DX003 (ip), vehicle: saline",111 % of control
CCOC(=O)c1cnc[nH]c1=O,T/C,[4],104 % of control
same,T/C,[7],104 % of control
same,T/C,"endpoint: mean survival time, dose: 400.0 mg/kg/injection, schedule: Q04DX003 (ip), vehicle: saline with Tween-80",96 % of control
CN(CCC#N)Cc1cc(C(C)(C)C)cc(-c2ccccc2)c1O,T/C,[3],90 % of control
same,T/C,[6],90 % of control
CC1SC(=S)NC1=O (stereo not given),T/C,"endpoint: mean survival time, dose: 100.0 mg/kg/injection, schedule: Q04DX003 (ip), vehicle: saline sonified",93 % of control
same,T/C,"endpoint: mean survival time, dose: 200.0 mg/kg/injection, schedule: Q04DX003 (ip), vehicle: saline sonified",113 % of control
same,T/C,"endpoint: mean survival time, dose: 400.0 mg/kg/injection, schedule: Q04DX003 (ip), vehicle: saline sonified",96 % of control
O=[N+]([O-])O.[Cu+2].[NH-]C1CCCCC1[NH-].[NH-]C1CCCCC1[NH-] (stereo not given),T/C,"endpoint: mean survival time, dose: 12.5 mg/kg/injection, schedule: Q04DX002 (ip), vehicle: saline with Tween-80",94 % of control
N/C(=N\OCc1ccccc1)c1ncn(C2CCCC2)c1N,T/C,"endpoint: mean survival time, dose: 75.0 mg/kg/injection, schedule: Q01DX001 (ip), vehicle: other",102 % of control
same,T/C,"endpoint: mean survival time, dose: 150.0 mg/kg/injection, schedule: Q01DX001 (ip), vehicle: other",106 % of control
same,T/C,"endpoint: mean survival time, dose: 300.0 mg/kg/injection, schedule: Q01DX001 (ip), vehicle: other",103 % of control
